# Measurements from patent US12728126B2, “Compounds for inhibiting LY6K and methods of using same” (The Henry M. Jackson Foundation for the Advancement of …, priority 2020, dated 2026).
# “Also recorded” adds a separate entry of the source.
# Experiments:
# [1] = tested on: 4T1 mammary cells; experiment: Cell cycle analysis of 4T1 cells (DAPI, flow cytometry); assay type: cell-based, mouse
# Description: 4T1 mammary cells were plated at the same cell density. Cells were serum starved overnight. They were supplemented with medium containing 10% serum with or without indicated doses of the Compound I for 16 hours. Cells were washed with PBS to remove floating cells. Cells were collected by trypsinization and centrifugation. Cell were fixed with methanol and counted. Equal number of cells were stained with 5 mM DAPI and flow cytometry was performed on Cytoflex and for flowjo was used for cell cycle analysis.
# [2] = tested on: IFNγ/Stat1 signaling; experiment: Western blot of IFNγ induced phosphorylation of Stat1; assay type: cell-based; conditions: serum starved, IFN γ (100 ng/mL), 2 μM, 30 minutes
# Description: (§1) Cells were serum starved overnight and then treated with TGF 13 (10 ng/mL) or IFN γ (100 ng/mL) in the presence of 2 μM NSC243928 or NSC11150 for 30 minutes followed by protein analysis using western blot. […] NSC243928 inhibited the TGFβ1 induced phosphorylation of Smad2/3; NSC11150 had no effect on TGFβ1/Smad2/3 signaling. NSC11150 inhibited IFNγ induced phosphorylation of Stat1; NSC243928 had no effect on IFNγ/Stat1 signaling.
# [3] = tested on: RhoA; experiment: Western blot of motility marker RhoA in 4T1 cells; assay type: cell-based, mouse; conditions: 0.1 μM, 1.0 μM or 5.0 μM, 16 hours
# Description: (§2) 4T1 mammary cells were plated at the same cell density. Cells were serum starved overnight. They were supplemented with medium containing 10% serum with or without doses of Compound I (0.1 μM, 1.0 μM or 5.0 μM) and for 16 hours. Equal quantity of protein was loaded for western blot analysis.
# [4] = tested on: MDA-MB-231 cells; experiment: Cell-Titer-Blue assay, control vs LY6K knockdown MDA-MB-231 cells; assay type: cell-based; conditions: 2 μM, 24 h, listed as NSC243928
# Description: For cell death assay, cells were plated in a black walled 96-well plate and treated with the indicated concentration of drugs for 24 h. Cell-Titer-Blue reagent was added, and the Cytation 5 microplate reader (BioTek, Winooski, VT, USA) was used to measure fluorescence intensity (excitation 560(10) nm, emission 590(20) nm) according to manufacturer's instructions.
# To confirm the effect of NSC243928 in LY6K-expressing cells, it was observed the parental control and sh2 LY6K knockdown in MDA-MB-231 cells, a triple negative breast cancer cell line. These cells were generated as previously described. To test the effect of NSC243928 on cell growth, the cells were seeded into 96-well plates and treated with 2 μM of the compound for 24 h. A CTB assay was then performed according to manufacturer's instructions to determine the cell growth.
# as §1
# [5] = target: T1, LY6K (Mus musculus, UniProt Q9CWP4); experiment: Western blot of total LY6K level in 4T1 cells; assay type: cell-based; design: dose or concentration left out as unconfirmed; conditions: overnight
# T1 construct: endogenous in cells; host or cells: 4T1 mouse mammary tumor cells
# T1 sequence (Q9CWP4 21-123): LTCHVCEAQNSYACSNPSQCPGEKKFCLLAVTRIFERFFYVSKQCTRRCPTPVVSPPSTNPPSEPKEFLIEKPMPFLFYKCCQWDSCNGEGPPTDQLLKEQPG
# Description: 4T1 cells were treated with a concentration of 0.1 […] of Compound I overnight.
# [6] = tested on: TGFβ1/Smad2/3 signaling; experiment: Western blot of TGFβ1 induced phosphorylation of Smad2/3; assay type: cell-based; conditions: serum starved, TGFβ1 (10 ng/mL), 2 μM, 30 minutes
# Description: as §1
# [7] = tested on: Myeloid-derived suppressor cells (MDSCs); experiment: MDSCs (Cd11b and Gr1 dual positive cells) in peripheral blood of 4T1 tumor bearing mice, flow cytometry; assay type: in vivo; conditions: three doses of 50 mg/kg
# Description: Myeloid-derived suppressor cells (MDSCs) are a major cell type which suppress the anti-tumor response. Cd11b and Gr1 dual positive cells in lymphocytes from peripheral blood from 4T1 tumor bearing mice received Compound I and the control group (10 mice in each group).
# Three doses of Compound I (50 mg/kg) was injected via intravenously and intraperitoneally, and intravenous and peripheral blood was collected. Freshly isolated lymphocytes were stained with Cd11b and Gr-1 and a dye which can discriminated live and dead cells. The flow cytometry analysis for dual positivity was performed by gating on the live cells.
# [8] = tested on: caspase 3; experiment: Western blot of caspase 3 activation in 4T1 cells; assay type: cell-based, mouse; conditions: 0.1 μM, 1.0 μM or 5.0 μM, 16 hours
# Description: (§3) Cancer cells accumulate various mutations in their genome, yet they are protected against DNA damage induced apoptosis. Poly (ADP-ribose) polymerase (PARP) is a protein which facilitates DNA repair, genomic stability, and inhibits programmed cell death. PARP proteins are inactivated by cleavage of caspase 3 and caspase 7 in vivo. PARP inactivation cleavage and caspase activation by western blot was studied.
# as §2
# [9] = tested on: 4T1 mammary cancer cells; experiment: 4T1 cellular morphology and growth after 16 hours treatment; assay type: cell-based, mouse
# Description: (§4) 4T1 mammary cancer cells show lack of contact inhibited cell growth, i.e. the cells can grow on top of each other. 4T1 mammary cells were plated at the same cell density. Cells were serum starved overnight. They were supplemented with medium containing 10% serum with or without indicated doses of the Compound I for 16 hours.
# [10] = tested on: 4T1 mammary cancer cells; experiment: beta gal cellular senescence assay; assay type: cell-based, mouse
# Description: as §4
# It is thus contemplated that treatment with Compound I may lead to suppression of active proliferation, and one of such mechanisms is by induction of cellular senescence. Thus, a beta gal cellular senescence assay was carried out.
# [11] = tested on: caspase 7; experiment: Western blot of caspase 7 activation in 4T1 cells; assay type: cell-based, mouse; conditions: 0.1 μM, 1.0 μM or 5.0 μM, 16 hours
# Description: as §3, §2
compound,measurement,setting,value
"CCS(=O)(=O)Nc1ccc(Nc2c3ccccc3nc3ccccc23)c(OC)c1 [Compound I, N-(4-(acridin-9-ylamino)-3-methoxyphenyl)ethanesulfonamide]",concentration of maximum apoptosis,[1],5 µM
same,concentration of maximum cell cycle arrest,[1],1 µM
same,"% of cells in singlet population, 4 n","[1]; 1.0 μM, 16 hours",47.3%
same,"% of cells in singlet population, G1","[1]; 1.0 μM, 16 hours",1.84%
same,"% of cells in singlet population, G2","[1]; 1.0 μM, 16 hours",39.8%
same,"% of cells in singlet population, S","[1]; 1.0 μM, 16 hours",2.27%
same,"% of cells in singlet population, Sub G1","[1]; 1.0 μM, 16 hours",0.59%
same,cell cycle arrest,"[1]; 1.0 μM, 16 hours",cell cycle arrest in G2 phase-2n phase
same,apoptosis,"[1]; 5.0 uM, 16 hours",massive apoptosis
same,cell cycle arrest,"[1]; 5.0 uM, 16 hours",paused in G1 state
same,"% of cells in singlet population, 4 n","[1]; 5.0 μM, 16 hours",0.024%
same,"% of cells in singlet population, G1","[1]; 5.0 μM, 16 hours",67.5%
same,"% of cells in singlet population, G2","[1]; 5.0 μM, 16 hours",0.35%
same,"% of cells in singlet population, S","[1]; 5.0 μM, 16 hours",2.41%
same,"% of cells in singlet population, Sub G1","[1]; 5.0 μM, 16 hours",7.38%
same,IFNγ induced phosphorylation of Stat1,[2],had no effect
same,marker of motility RhoA,[3],downregulated
same,cell death / cell growth in control MDA-MB-231 cells,[4]; control cells,induces cell death; also recorded: significant inhibitory effect; also recorded: diminished the growth
same,cell viability / activity in LY6K knockdown MDA-MB-231 cells,[4]; sh2 LY6K knockdown cells,increased cell viability; also recorded: inhibitory effect of NSC243928 is removed; also recorded: lost its activity
same,total level of LY6K,[5],dose response reduction
same,TGFβ1 induced phosphorylation of Smad2/3,[6],inhibited
same,lower MDSCs in peripheral blood of treated mice,[7],more than 90%
same,Cd11b and Gr-1 dual positive cells in treated group,[7]; gated on live cells,significantly lower
same,caspase 3 activation,[8],activated
same,cellular growth of 4T1 cells,[9]; 0.1 μM,inhibited the cellular growth
same,cellular growth of 4T1 cells,[9]; 1.0 μM,inhibited the cellular growth
same,cell density of 4T1 cells,[9]; 5.0 μM,reduced cell density
same,cell density in senescence assay,[10]; 5.0 μM,cells density was very low
same,induction of cellular senescence,[10]; 0.001 to 1.0 μM,strong induction of cellular senescence
same,caspase 7 activation,[11],activated
